{"source": "patent US20150366932A1", "about": "“METHODS FOR PRODUCING DIKETOPIPERAZINES AND COMPOSITIONS CONTAINING DIKETOPIPERAZINES” (AMPIO PHARMACEUTICALS, INC., priority 2013, published 2015)", "key": {"[1]": {"test_system": "activated PBMC and T-lymphocytes", "settings": "activated PBMC and T-lymphocytes in vitro; cited from earlier work"}, "[2]": {"molecular_target": "neurokinin-1 receptor (Homo sapiens, UniProt P25103)", "sequence (P25103 whole entry)": "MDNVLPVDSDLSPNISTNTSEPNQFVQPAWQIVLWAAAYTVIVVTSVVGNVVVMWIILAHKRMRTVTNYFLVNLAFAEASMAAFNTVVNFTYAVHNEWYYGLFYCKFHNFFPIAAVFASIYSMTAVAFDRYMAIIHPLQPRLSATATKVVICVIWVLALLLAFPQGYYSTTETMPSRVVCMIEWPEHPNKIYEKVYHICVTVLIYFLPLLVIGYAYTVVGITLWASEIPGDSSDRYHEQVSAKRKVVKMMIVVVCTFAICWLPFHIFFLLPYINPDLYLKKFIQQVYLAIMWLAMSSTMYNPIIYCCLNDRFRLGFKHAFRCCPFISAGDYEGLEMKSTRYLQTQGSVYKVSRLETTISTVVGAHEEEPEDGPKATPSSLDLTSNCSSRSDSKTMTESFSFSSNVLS", "settings": "cited from earlier work"}, "[3]": {"molecular_target": "T1, DPP-IV (Homo sapiens, UniProt P27487)", "T1 construct": "the Cohn manufacturing process which isolates other plasma components such as DPP-IV; tissue CSL Behring LLC; Grifols Biologicals Inc; Octapharma USA Inc. (5% HSA products that contain the enzyme); host or cells: human plasma (Cohn fractionation; commercial 5% HSA solution)", "T1 sequence (P27487 39-766 limits assumed)": "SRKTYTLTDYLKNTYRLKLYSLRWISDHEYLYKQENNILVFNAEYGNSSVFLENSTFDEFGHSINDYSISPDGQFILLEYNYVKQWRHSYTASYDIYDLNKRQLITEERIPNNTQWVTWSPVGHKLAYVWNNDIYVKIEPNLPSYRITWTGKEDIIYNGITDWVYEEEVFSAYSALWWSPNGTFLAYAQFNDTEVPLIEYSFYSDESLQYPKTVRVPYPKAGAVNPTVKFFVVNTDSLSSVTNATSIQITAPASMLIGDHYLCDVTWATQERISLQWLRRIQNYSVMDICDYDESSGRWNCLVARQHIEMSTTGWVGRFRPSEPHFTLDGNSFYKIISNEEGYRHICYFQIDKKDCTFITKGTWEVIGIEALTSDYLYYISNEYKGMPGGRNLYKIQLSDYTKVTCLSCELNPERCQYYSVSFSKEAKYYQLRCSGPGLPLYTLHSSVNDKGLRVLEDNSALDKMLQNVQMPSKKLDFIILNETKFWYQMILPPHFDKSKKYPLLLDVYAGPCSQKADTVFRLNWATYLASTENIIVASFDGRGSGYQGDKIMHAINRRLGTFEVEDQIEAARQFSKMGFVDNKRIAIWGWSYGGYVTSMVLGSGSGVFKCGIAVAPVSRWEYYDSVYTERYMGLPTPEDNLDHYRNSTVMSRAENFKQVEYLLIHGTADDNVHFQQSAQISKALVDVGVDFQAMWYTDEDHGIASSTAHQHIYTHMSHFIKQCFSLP", "assay": "DA-DKP formation in 5% commercial HSA heated at 60° C., <5 kDa fraction by LCMS", "format": "biochemical", "procedure": "For the analysis of DA-DKP formation, an aliquot was added to a microcentrifugal filter (Vivaspin 2, MWCO 5,000, Sartorius Stedim Biotech, Goettingen, Germany). Filters were centrifuged at 3,500 rpm for 30 minutes at room temperature. The <5 kDa fraction was collected and transferred to a separate, storage tube for LCMS analysis.\nEach <5 kDa fraction & DA-DKP synthetic standard (20-2000 ng/mL) were spiked with 0.01 mM L-Tryptophan-d5 (indole-d5) which was used as an internal standard. 50 μL was injected into a strong anion exchange column (Spherisorb, S5 SAX 250 mm×4.0 mm, Waters, Milford, Mass., USA) connected to high performance liquid chromatography (HPLC, Waters 2795 Separations Module, Milford, Mass., USA) coupled to a mass spectrometer (LCT-TOF, Micromass, UK). […]\nThe output of the HPLC was split 1:20 (v/v) and injected into the mass spectrometer using negative electrospray ionization (−ESI) with a scan range of 80 to 1000 m/z, cone voltage of 30 eV, source temperature of 100° C., and gas temperature of 300° C. DA-DKP was measured by monitoring [M]=185, which corresponds to DA-DKP minus a single proton (—H+). The straight chain of DA-DKP, Asp-Ala, can also be analyzed with this method by monitoring [M]=203.\nThe formation of the DKP, DA-DKP, was measured in a commercial HSA solution heated at 60° C. in the presence or absence of a known DPP-IV inhibitor (diprotin A). […]"}, "[4]": {"molecular_target": "T2, dipeptidyl peptidase IV (DPP-IV) (Homo sapiens, UniProt P27487)", "T2 construct": "the Cohn manufacturing process which isolates other plasma components such as DPP-IV; tissue CSL Behring LLC; Grifols Biologicals Inc; Octapharma USA Inc. (5% HSA products that contain the enzyme); host or cells: human plasma (Cohn fractionation; commercial 5% HSA solution)", "T2 sequence (P27487 39-766 limits assumed)": "as above", "assay": "DPP-IV activity assay with chromogenic substrate Gly-Pro-pNA in HSA solutions", "format": "biochemical", "settings": "1 mM diprotin A pre-incubated 15 minutes at 37° C.; Gly-Pro-pNA 1 mM; 24 hour incubation at 37° C.", "description": "DPP-IV activity was assayed by using a chromogenic substrate, Gly-Pro-pNA, as described in E. Nemoto, S. Sugawara, H. Takada, et al., Increase of CD26/dipeptidyl peptidase IV expression on human gingival fibroblasts upon stimulation with cytokines and bacterial components. […] All reactions were carried out in DPP-IV assay buffer (pH 7.6) consisting of 0.1M HEPES, 0.12M NaCl, 5 mM KCl, 8 mM glucose, and 10 mg/ml bovine serum albumin (BSA). 5% commercial HSA, recombinant HSA, or buffer blank (0.9% NaCl) were combined with 1 mM Gly-Pro-pNA (DPP-IV substrate) in assay buffer or assay buffer only (−CON). Incubations were performed at 37° C. or 60° C. for 2-24 hours. For DPP-IV inhibition studies, 1 mM diprotin A in assay buffer was pre-incubated with the HSA solutions for 15 minutes at 37° C. prior to DPP-IV substrate addition. All incubations were read at 405 nm (SpectraMax M2 spectrophotometer, Molecular Devices LLC, Sunnyvale, Calif., USA). Each reading at 405 nm was corrected by subtracting the A405 for the DPP-IV substrate-containing incubation from the corresponding A405 for the −CON incubation for each HSA solution tested.\nThe amount of pNA produced in μM was calculated based on the pNA molar extinction coefficient in HEPES buffer (see R. Lottenberg, C. M. Jackson, Solution composition dependent variation in extinction coefficients for p-nitroaniline. Biochim Biophys Acta 742 (1983) 558-64). […] Groups were compared using a two tailed students' T-test with a significance level at p<0.05. All data is reported as mean±SD.\nDipeptidyl peptidase IV (DPP-IV) activity was assessed in commercial preparations of human serum albumin (HSA). […] The resulting liberation of a chromogen, pNA, was measured spectrophotometrically at 405 nm."}}, "note": "Entries after “also recorded” stand apart in the source; their conditions may differ."}
{"compound": "CC1NC(=O)C(CC(=O)O)NC1=O", "note": "(centres unmarked) [DA-DKP, 3-methyl-2,5-diketopiperazine-6-acetic acid]", "values": [{"measurement": "Immunosuppressive effects", "setting": "[1]", "result": "immunosuppressive effects"}]}
{"compound": "CC(=O)N[C@@H](Cc1c[nH]c2ccccc12)C(=O)O", "note": "[NAT, N-acetyl-tryptophan]", "values": [{"measurement": "Antagonism of the neurokinin-1 receptor", "setting": "[2]", "result": "well-known antagonist"}]}
{"compound": "Ile-Pro-Ile [diprotin A]", "values": [{"measurement": "Decrease of amount of DA-DKP produced with inhibitor", "setting": "[3]; 24 hour period, commercial HSA", "result": "~3", "unit": "fold"}, {"measurement": "Increase in DA-DKP production in the presence of the DPP-IV inhibitor", "setting": "[3]; 24 hours, 5% commercial HSA plus diprotin A", "result": 10, "unit": "%"}, {"measurement": "DPP-IV activity in commercial HSA in the presence of DPP-IV inhibitor", "setting": "[4]", "result": "completely suppressed; also recorded: complete suppression of DPP-IV activity; also recorded: abolished"}]}
